The test deals with P. aeruginosa. Briefly: Antibacterial activity (MIC) against P. aeruginosa. The format is cell-based, Pseudomonas aeruginosa. The method, then: In this example, the antibacterial activity of exemplary multifunctional copolymeric nanoparticles against Gram-negative and Gram-positive strains, including P. aeruginosa, E. coli, S. aureus, and Enterococcus, were investigated based on their minimum bactericidal concentration (MBC) and minimum inhibitory concentration (MIC). Reaction time for synthesis of exemplary multifunctional copolymeric nanoparticles (AX) was varied from 1 hour to 72 hours to fine-tune the antibacterial activity of the exemplary multifunctional copolymeric nanoparticles. FIG. 11 illustrates a chart 1100 for the antibacterial activity of exemplary multifunctional copolymeric nanoparticles synthesized in different reaction times (1, 3, 8, 24, and 72 hours), consistent with one or more exemplary embodiments of the present disclosure.

We go through 1 substance from patent publication US20240102051A1, “MULTIFUNCTIONAL COPOLYMERIC NANOPARTICLE” (Iran University of Medical Sciences, priority 2021, published 2024).

A value given as a limit tells only on which side of the number the result lay.

As a reminder, the MIC is the least concentration at which growth counts as inhibited. As to gentamicin, the MIC is > 64 µg/mL.
